Test results as given in PubChem BioAssay AID330 (DTP/NCI, 2004).
Several values for one entry are separate records, joined by “and”; a condition that tells them apart may be missing. Identical values can stand only once. Toxic doses and inconclusive results are not listed. The calls were made as follows: active = survival T/C of 150% or more; inactive = T/C below 125% in these data.

System: P388 leukemia ip, CD2F1 mice, survival T/C
Test: NCI In Vivo Anticancer Drug Screen. Data for tumor model P388 Leukemia (intraperitoneal) in CD2F1 (CDF1) mice
Details: endpoint: median survival time, higher = longer survival
Summary of the method: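 Mice carrying the transplanted tumor received test compound or vehicle. Survival was recorded in each group, and the value is the treated-group measurement divided by that of the vehicle-treated control group.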

[1] = dose: 100.0 mg/kg/injection, schedule: Q01DX009 (ip), vehicle: saline with Tween-80
[2] = dose: 200.0 mg/kg/injection, schedule: Q01DX009 (ip), vehicle: saline with Tween-80
[3] = dose: 25.0 mg/kg/injection, schedule: Q01DX005 (ip), vehicle: saline
[4] = dose: 50.0 mg/kg/injection, schedule: Q01DX005 (ip), vehicle: saline
[5] = dose: 100.0 mg/kg/injection, schedule: Q01DX005 (ip), vehicle: saline
[6] = dose: 200.0 mg/kg/injection, schedule: Q01DX005 (ip), vehicle: saline
[7] = dose: 50.0 mg/kg/injection, schedule: Q01DX005 (ip), vehicle: Klucel (hydroxypropylcellulose) (HPC)
[8] = dose: 100.0 mg/kg/injection, schedule: Q01DX005 (ip), vehicle: Klucel (hydroxypropylcellulose) (HPC)
[9] = dose: 200.0 mg/kg/injection, schedule: Q01DX005 (ip), vehicle: Klucel (hydroxypropylcellulose) (HPC)
[10] = dose: 60.0 mg/kg/injection, schedule: Q01DX005 (ip), vehicle: saline with Tween-80
[11] = dose: 120.0 mg/kg/injection, schedule: Q01DX005 (ip), vehicle: saline with Tween-80
[12] = dose: 240.0 mg/kg/injection, schedule: Q01DX005 (ip), vehicle: saline with Tween-80
[13] = dose: 50.0 mg/kg/injection, schedule: Q01DX009 (ip), vehicle: Klucel (hydroxypropylcellulose) (HPC)
[14] = dose: 100.0 mg/kg/injection, schedule: Q01DX009 (ip), vehicle: Klucel (hydroxypropylcellulose) (HPC)
[15] = dose: 200.0 mg/kg/injection, schedule: Q01DX009 (ip), vehicle: Klucel (hydroxypropylcellulose) (HPC)
[16] = dose: 50.0 mg/kg/injection, schedule: Q01DX005 (ip), vehicle: saline with Tween-80

Measured: T/C

CN1C2=C(C#N)C(=C(C#N)C#N)NC2C(C)(C)c2ccccc21 (configuration not stated)
inactive: dose: 50.0 mg/kg/injection, schedule: Q01DX009 (ip), vehicle: saline with Tween-80 96 % of control | [1] 88 % of control | [2] 92 % of control

C1CCN2CC3CC(CN4CCCCC34)C2C1 (configuration not stated)
inactive: dose: 1.87 mg/kg/injection, schedule: Q01DX005 (ip), vehicle: saline 100 % of control | dose: 3.75 mg/kg/injection, schedule: Q01DX005 (ip), vehicle: saline 101 % of control | dose: 6.2 mg/kg/injection, schedule: Q01DX007 (ip), vehicle: carboxymethylcellulose (CMC) 91 % of control | dose: 7.5 mg/kg/injection, schedule: Q01DX005 (ip), vehicle: saline 102 % of control | dose: 12.5 mg/kg/injection, schedule: Q01DX007 (ip), vehicle: carboxymethylcellulose (CMC) 100 % of control | dose: 15.0 mg/kg/injection, schedule: Q01DX005 (ip), vehicle: saline 100 % of control | [3] 92 % of control | dose: 25.0 mg/kg/injection, schedule: Q01DX007 (ip), vehicle: carboxymethylcellulose (CMC) 91 % of control | [4] 99 % of control

O=C1CC2(CCc3ccccc32)C(=O)N1CN1CCN(CCO)CC1 (configuration not stated)
inactive: [4] 106 % of control | [5] 110 % of control | [6] 115 % of control

O=[N+]([O-])c1ccc(Sc2nc3ccccc3[nH]2)c(Cl)c1
inactive: [7] 99 % of control | [8] 100 % of control | [9] 117 % of control

CN(C)c1ccc(N=C(C#N)c2ccc(Cl)cc2)cc1
inactive: dose: 50.0 mg/kg/injection, schedule: Q04DX003 (ip), vehicle: Klucel (hydroxypropylcellulose) (HPC) 99 % of control | dose: 100.0 mg/kg/injection, schedule: Q04DX003 (ip), vehicle: Klucel (hydroxypropylcellulose) (HPC) 96 % of control | dose: 200.0 mg/kg/injection, schedule: Q04DX003 (ip), vehicle: Klucel (hydroxypropylcellulose) (HPC) 103 % of control | dose: 400.0 mg/kg/injection, schedule: Q04DX003 (ip), vehicle: Klucel (hydroxypropylcellulose) (HPC) 96 % of control

Cc1cc(NS(=O)(=O)c2ccc(N)cc2)no1
inactive: [3] 106 % of control | [4] 103 % of control | [5] 114 % of control | [6] 101 % of control | dose: 400.0 mg/kg/injection, schedule: Q01DX005 (ip), vehicle: saline 97 % of control

c1ccc2c(SCCOCCSc3c4ccccc4nc4ccccc34)c3ccccc3nc2c1
inactive: [10] 98 % of control | [11] 92 % of control | [12] 90 % of control

CC(=O)Oc1ccc([N+](=O)[O-])cc1[N+](=O)[O-]
inactive: dose: 6.25 mg/kg/injection, schedule: Q04DX002 (ip), vehicle: Klucel (hydroxypropylcellulose) (HPC) 97 % of control | dose: 12.5 mg/kg/injection, schedule: Q04DX002 (ip), vehicle: Klucel (hydroxypropylcellulose) (HPC) 103 % of control | dose: 25.0 mg/kg/injection, schedule: Q04DX002 (ip), vehicle: Klucel (hydroxypropylcellulose) (HPC) 100 % of control

CCCCCCC(=O)C(=O)c1ccc(O)c(C)c1O
inactive: [13] 89 % of control | [14] 93 % of control | [15] 93 % of control

COc1ccccc1NC(=O)C1=CNC(C)=C(C(=O)Nc2ccccc2OC)C1/C=C/c1ccccc1 (configuration not stated)
inactive: [10] 100 % of control | [11] 105 % of control | [12] 105 % of control

O=C1CCCC(Br)c2ccccc21 (configuration not stated)
inactive: dose: 100.0 mg/kg/injection, schedule: Q01DX009 (ip), vehicle: distilled water + Tween-80 + alcohol 112 % of control | dose: 200.0 mg/kg/injection, schedule: Q01DX009 (ip), vehicle: distilled water + Tween-80 + alcohol 115 % of control | dose: 400.0 mg/kg/injection, schedule: Q01DX009 (ip), vehicle: distilled water + Tween-80 + alcohol 106 % of control

Clc1ccc(SSc2ccc(Cl)cc2)cc1
inactive: dose: 12.5 mg/kg/injection, schedule: Q01DX009 (ip), vehicle: gum acacia 106 % of control | dose: 25.0 mg/kg/injection, schedule: Q01DX009 (ip), vehicle: gum acacia 106 % of control | dose: 50.0 mg/kg/injection, schedule: Q01DX009 (ip), vehicle: gum acacia 114 % of control

CC1COn2c1nc1ccccc1c2=O (configuration not stated)
inactive: [13] 104 % of control | [14] 103 % of control | [15] 104 % of control

COc1ccc(C2C(C#N)=C(N)Oc3c2c(C)nn3-c2ccccc2)cc1 (configuration not stated)
inactive: [13] 89 % of control and 92 % of control | [14] 99 % of control and 96 % of control | [15] 90 % of control and 97 % of control

Cn1cnc(=O)c2n[nH]nc21
inactive: [7] 100 % of control | [8] 100 % of control | [9] 87 % of control

COc1cc(N(CCCl)CCCl)ccc1/C=N\NC(=O)c1cccnc1
inactive: dose: 25.0 mg/kg/injection, schedule: Q01DX007 (ip), vehicle: Klucel (hydroxypropylcellulose) (HPC) 95 % of control | dose: 50.0 mg/kg/injection, schedule: Q01DX007 (ip), vehicle: Klucel (hydroxypropylcellulose) (HPC) 108 % of control | dose: 100.0 mg/kg/injection, schedule: Q01DX007 (ip), vehicle: Klucel (hydroxypropylcellulose) (HPC) 100 % of control | dose: 200.0 mg/kg/injection, schedule: Q01DX007 (ip), vehicle: Klucel (hydroxypropylcellulose) (HPC) 101 % of control

C#CC(=O)O
inactive: dose: 6.25 mg/kg/injection, schedule: Q01DX009 (ip), vehicle: saline with Tween-80 111 % of control | dose: 12.5 mg/kg/injection, schedule: Q01DX009 (ip), vehicle: saline with Tween-80 95 % of control | dose: 25.0 mg/kg/injection, schedule: Q01DX009 (ip), vehicle: saline with Tween-80 92 % of control

CCCCCCCCCCCCCCCCCC[N+]1([O-])CCCC1
inactive: dose: 50.0 mg/kg/injection, schedule: Q01DX009 (ip), vehicle: water 93 % of control

CNC(=O)N(C)C1OC(CO)C(O)C1O (configuration not stated)
inactive: dose: 100.0 mg/kg/injection, schedule: Q04DX003 (ip), vehicle: water 113 % of control | dose: 200.0 mg/kg/injection, schedule: Q04DX003 (ip), vehicle: water 119 % of control | dose: 400.0 mg/kg/injection, schedule: Q04DX003 (ip), vehicle: water 119 % of control

CCOC(=O)C(C(=O)OCC)c1c[n+]([O-])c2ccccc2c1[N+](=O)[O-]
inactive: [1] 104 % of control | dose: 100.0 mg/kg/injection, schedule: Q04DX003 (ip), vehicle: saline with Tween-80 109 % of control | [2] 100 % of control | dose: 200.0 mg/kg/injection, schedule: Q04DX003 (ip), vehicle: saline with Tween-80 104 % of control | dose: 400.0 mg/kg/injection, schedule: Q01DX009 (ip), vehicle: saline with Tween-80 100 % of control | dose: 400.0 mg/kg/injection, schedule: Q04DX003 (ip), vehicle: saline with Tween-80 95 % of control

CN(N=Nc1ccc(C#N)cc1)C(C)(C)C
inactive: [16] 100 % of control | dose: 100.0 mg/kg/injection, schedule: Q01DX005 (ip), vehicle: saline with Tween-80 100 % of control

CC1(C)COC(=O)/C1=C1\SC(=O)NC1=O
inactive: dose: 100.0 mg/kg/injection, schedule: Q04DX003 (ip), vehicle: saline 95 % of control | dose: 200.0 mg/kg/injection, schedule: Q04DX003 (ip), vehicle: saline 94 % of control | dose: 400.0 mg/kg/injection, schedule: Q04DX003 (ip), vehicle: saline 102 % of control

CCC1C(=O)OCc2c1cc1n(c2=O)CCC1 (configuration not stated)
inactive: dose: 50.0 mg/kg/injection, schedule: Q01DX001 (ip), vehicle: Klucel (hydroxypropylcellulose) (HPC) 123 % of control | dose: 100.0 mg/kg/injection, schedule: Q01DX001 (ip), vehicle: Klucel (hydroxypropylcellulose) (HPC) 106 % of control | dose: 200.0 mg/kg/injection, schedule: Q01DX001 (ip), vehicle: Klucel (hydroxypropylcellulose) (HPC) 100 % of control | dose: 400.0 mg/kg/injection, schedule: Q01DX001 (ip), vehicle: Klucel (hydroxypropylcellulose) (HPC) 108 % of control

Cc1ccc(NCCN2CCC(C3CCN(CCNc4ccc(C)c5sc6ccccc6c(=O)c45)CC3)CC2)c2c(=O)c3ccccc3sc12
inactive: dose: 6.25 mg/kg/injection, schedule: Q01DX005 (ip), vehicle: saline with Tween-80 90 % of control | dose: 12.5 mg/kg/injection, schedule: Q01DX005 (ip), vehicle: saline with Tween-80 97 % of control | dose: 25.0 mg/kg/injection, schedule: Q01DX005 (ip), vehicle: saline with Tween-80 95 % of control | [16] 94 % of control

O=C1OC(c2ccccc2)=N/C1=C/c1cccn(-c2ccccc2)c1=S
inactive: [7] 94 % of control | [8] 87 % of control | [9] 86 % of control
